Source: US20140072557A1, “MEDICINAL AGENT FOR SUPPRESSING MALIGNANT TUMOR METASTASIS” (priority 2011, published 2014)

What was measured:
A549 cells [1] = experiment: Invasion ability, Matrigel-coated Boyden chamber assay, A549 cells; assay type: cell-based; conditions: 1 μM hANP, TGF-β1 1 ng/mL, 40 hours
Description: (§1) Using a 6-well dish, the A549 cells were cultured at 1×10^5 cells/well, and the culture medium was replaced with DMEM culture medium free from FBS the next day. After 24 hours of culture, the cells were divided into 3 groups (the control group, the TGF-β1 group, and the TGF-β1+hANP group), and used in the following experiment.
To the culture medium for the TGF-β1+hANP group, the hANP solution was added so that the final concentration of hANP would be […] the control group and the TGF-β1 group, the same amount of physiological saline was added to the culture medium. After 2 hours from the addition, the Boyden chamber assay was performed as follows. Cell culture inserts (8.0 μm pore size, made by Becton, Dickinson and Company) coated with Matrigel were prepared beforehand by placing cell culture inserts on a 6-well dish, adding 300 μL each of a […] Matrigel solution (adjusted with PBS) thereonto, and air drying the inserts.
DMEM culture medium free from FBS for the control group, the same DMEM culture medium containing TGF-β1 (final concentration: 1 ng/mL) for the TGF-β1 group, and the same DMEM culture medium containing hANP (final concentration: 1 μM) and TGF-β1 (final concentration: 1 ng/mL) for the TGF-β1+hANP group were separately added to each well of a 6-well dish in an amount of 1.5 mL. […]

A549 cells [2] = experiment: Mouse tail vein injection metastasis test, GFP-labeled A549 cells; assay type: in vivo; conditions: hANP 0.5 μg/kg/min by subcutaneous osmotic pump for 4 weeks, observed 8 weeks after injection, Balb/c (nu/nu) mice
Description: Six-week-old male Balb/c (nu/nu) mice were used (purchased from Japan SLC, Inc.).
The osmotic pumps used were MODEL2004 (for 28-day administration) made by ALZET (Cupertino, Calif.).
Mice into which an osmotic pump containing 0.9% physiological saline was subcutaneously implanted in the back were assigned to the control group. Similarly, mice into which an osmotic pump containing hANP prepared for administration at 0.5 μg/kg/min was subcutaneously implanted were assigned to the ANP group. Injection of a tumor cell suspension was performed on the day after the osmotic pump implantation.
As the tumor cells, A549 cell line labeled with GFP (Green Fluorescent Protein) was purchased from Wako Pure Chemical Industries, Ltd., and cultured in RPMI1640 (Life Technologies Corp.) containing 10% FCS under 5% CO2 at 37° C. The cells in a subconfluent state were treated with EDTA-trypsin, centrifuged, and then suspended in serum free DMEM so as to be 1×10^7 cells/mL. The A549 cell suspension (100 μL/body, 1×10^6 cells) was injected to the tail vein of the mice.

A549 cells [3] = experiment: Motility, wound healing assay, A549 cells; assay type: cell-based; conditions: 1 μM hANP, TGF-β1 1 ng/mL, 24 hours
Description: as §1, with “cultured at 4×10^5 cells/well, and” for “cultured at 1×10^5 cells/well, and”, “group, the TGF-(31 group, and” for “group, the TGF-β1 group, and”
To the culture medium for the TGF-β1+hANP group, the hANP solution was added so that the final concentration of hANP would be 1 μM. For the control group and the TGF-β1 group, the same amount of physiological saline was added to the culture medium. Two hours later, a wound was created at the center of each well with the use of a 200 μL-pipette tip. Immediately after the wound creation, a photograph of each well was taken under a microscope (FIG. 7A). To the TGF-β+hANP group and the TGF-β1 group, TGF-β1 was added so that the final concentration would be 1 ng/mL. After 24-hour culture, a photograph of the same part was taken again to calculate the average ratio of the wounded area width difference between immediately after the wound creation and after 24-hour culture (migration ratio: % wounded area filled) by the following formula.
Migration ratio (%)=(initial wound width−wound width after 24-hour culture)/(initial wound width)×100

A549 cells [4] = experiment: Migration ability, Boyden chamber assay, A549 cells; assay type: cell-based; conditions: 1 μM hANP, TGF-β1 1 ng/mL, 20 hours
Description: as §1
To the culture medium for the TGF-β+hANP group, the hANP solution was added so that the final concentration of hANP might be 1 μM. For the control group and the TGF-β1 group, the same amount of physiological saline was added to the culture medium. After 2 hours from the addition, the Boyden chamber assay was performed as follows.
DMEM culture medium free from FBS for the control group, the same DMEM culture medium containing TGF-β1 (final concentration: 1 ng/mL) for the TGF-β1 group, and the same DMEM culture medium containing hANP (final concentration: 1 μM) and TGF-β1 (final concentration: 1 ng/mL) for the TGF-β1+hANP group were separately added to each well of a 6-well dish in an amount of 1.5 mL. On the surface of each liquid, a cell culture insert (8.0 μm pore size, made by Becton, Dickinson and Company) was placed, and onto each cell culture insert, 1.5 mL of a cell suspension of A549 cells of each group in FBS-free DMEM (hANP at final concentration of 1 μM was added for the TGF-β1+hANP group) was added and cultured. […]

CC[C@H](C)[C@@H]1NC(=O)[C@H](CCCNC(=N)N)NC(=O)[C@H](CC(=O)O)NC(=O)[C@H](CCSC)NC(=O)[C@H](CCCNC(=N)N)NC(=O)CNC(=O)CNC(=O)[C@H](Cc2ccccc2)NC(=O)[C@@H](NC(=O)[C@H](CO)NC(=O)[C@H](CO)NC(=O)[C@H](CCCNC(=N)N)NC(=O)[C@H](CCCNC(=N)N)NC(=O)[C@H](CC(C)C)NC(=O)[C@@H](N)CO)CSSC[C@@H](C(=O)N[C@@H](CC(N)=O)C(=O)N[C@@H](CO)C(=O)N[C@@H](Cc2ccccc2)C(=O)N[C@@H](CCCNC(=N)N)C(=O)N[C@@H](Cc2ccc(O)cc2)C(=O)O)NC(=O)CNC(=O)[C@H](CC(C)C)NC(=O)CNC(=O)[C@H](CO)NC(=O)[C@H](CCC(N)=O)NC(=O)[C@H](C)NC(=O)CNC1=O [hANP, carperitide]
significantly suppressed: cell invasion via the Matrigel layer (A549 cells [1]) | lung metastasis (number of nodules) (A549 cells [2]) | motility (migration ratio, % wounded area filled) (A549 cells [3]) | migration ability (cells on lower surface of insert) (A549 cells [4])
